Experimental data as given in patent US11452717B2, “Small molecule activators of nicotinamide phosphoribosyltransferase (NAMPT) and uses thereof” (Sanford Burnham Prebys Medical Discovery Institute, priority 2017, dated 2022).

What follows are compounds tested against NAMPT enzyme (Homo sapiens (Human), UniProt P43490) (assay: Enzyme Assay and NMN Detection (NAMPT reaction, fluorescence detection of NMN)). Settings: Table B-2; NAMPT activation, NMN formation.
Type: biochemical
Protocol: NAMPT reaction was performed in 50 mM HEPES, pH 7.5, containing 5 mM MgCl2, 0.1% Prionex, 0.005% Tween 20, and 1 mM TCEP at room temperature in Greiner 384-well black polypropylene plates. The concentration of substrates and enzymes in the final assay were as follows: ATP (120 uM), nicotinamide (5 uM), phosphoribosylpyrophosphate (6.25 uM), NAMPT enzyme (16 nM), pyrophosphatase (0.04 U/ml) in the final reaction volume 6 uL. Following 2 h incubation the reaction was stopped by addition 2.5 ul 20% acetophenone in dimethyl sulfoxide (DMSO) and 2.5 ul 2 MKOH. Plates were centrifuges and added with 10.5 ul 88% formic acid. The fluorescence (ex380/em460) was measured following another short incubation and 30 min incubation. The increased concentration of NMN was determined from a calibration curve obtained at the time of experiment.

Chain of NAMPT enzyme (P43490 whole entry, species assumed): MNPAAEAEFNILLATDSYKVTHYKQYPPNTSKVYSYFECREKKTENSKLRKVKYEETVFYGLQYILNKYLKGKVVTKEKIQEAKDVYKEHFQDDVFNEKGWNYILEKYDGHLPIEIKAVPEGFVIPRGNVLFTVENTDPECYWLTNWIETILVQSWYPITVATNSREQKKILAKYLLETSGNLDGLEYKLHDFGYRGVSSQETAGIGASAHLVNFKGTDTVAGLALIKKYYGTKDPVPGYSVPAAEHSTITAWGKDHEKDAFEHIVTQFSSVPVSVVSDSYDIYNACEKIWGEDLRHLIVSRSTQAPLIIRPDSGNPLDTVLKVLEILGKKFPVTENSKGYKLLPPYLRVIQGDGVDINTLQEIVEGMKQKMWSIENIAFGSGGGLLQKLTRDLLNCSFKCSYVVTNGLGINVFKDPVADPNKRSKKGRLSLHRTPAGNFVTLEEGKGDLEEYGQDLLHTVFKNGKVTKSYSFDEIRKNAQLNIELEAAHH

Compound	EC50 [nM]
O=C(NCc1ccncc1)Nc1ccc(C(=O)N2CCc3ccccc3C2)cc1 [1-(Pyridin-4-ylmethyl)-3-(4-(1,2,3,4-tetrahydroisoquinoline-2-carbonyl)phenyl)urea]	100 to 2000
O=C(NCc1ccncc1)Nc1ccc(C(=O)N2CCCC2)cc1 [1-(Pyridin-4-ylmethyl)-3-(4-(pyrrolidine-1-carbonyl)phenyl)urea]	5000 to 20000
O=C(NCc1ccncc1)Nc1ccc(OC(F)(F)F)cc1 [1-(Pyridin-4-ylmethyl)-3-(4-(trifluoromethoxy)phenyl)urea]	> 20000
O=C(NCc1ccncc1)Nc1ccc(C(F)(F)F)cc1 [1-(Pyridin-4-ylmethyl)-3-(4-(trifluoromethyl)phenyl)urea]	5000 to 20000
Cc1ccc(NC(=O)NCc2ccncc2)cc1 [1-(Pyridin-4-ylmethyl)-3-(p-tolyl)urea]	> 20000

Same assay, conditions: Table B-3; NAMPT activation, NMN formation

Compound	EC50 [nM]
O=C(NCc1ccccn1)Nc1ccc(OC(F)(F)F)cc1 [1-(Pyridin-2-ylmethyl)-3-(4-(trifluoromethoxy)phenyl)urea]	> 20000
O=C(NCc1ccccn1)Nc1ccc(C(F)(F)F)cc1 [1-(Pyridin-2-ylmethyl)-3-(4-(trifluoromethyl)phenyl)urea]	> 20000
Cc1ccc(NC(=O)NCc2ccccn2)cc1 [1-(Pyridin-2-ylmethyl)-3-(p-tolyl)urea]	> 20000
O=C(NCc1cccnc1)Nc1ccc(OC(F)(F)F)cc1 [1-(Pyridin-3-ylmethyl)-3-(4-(trifluoromethoxy)phenyl)urea]	> 20000
O=C(NCc1cccnc1)Nc1ccc(C(F)(F)F)cc1 [1-(Pyridin-3-ylmethyl)-3-(4-(trifluoromethyl)phenyl)urea]	> 20000
Cc1ccc(NC(=O)NCc2cccnc2)cc1 [1-(Pyridin-3-ylmethyl)-3-(p-tolyl)urea]	> 20000

Same assay, conditions: Table B-4; NAMPT activation, NMN formation

Compound	EC50 [nM]
Cc1ccccc1-c1ccccc1S(=O)(=O)c1ccc(NC(=O)NCc2cn[nH]c2)cc1 [1-((1H-Pyrazol-4-yl)methyl)-3-(4-((2′-methyl-[1,l′-biphenyl]-2-yl)sulfonyl)phenyl)urea]	100 to 2000
O=C(NCc1cn[nH]c1)Nc1ccc(S(=O)(=O)c2cccc(F)c2)cc1 [1-((1H-Pyrazol-4-yl)methyl)-3-(4-((3-fluorophenyl)sulfonyl)phenyl)urea]	< 100
N#Cc1cccc(-c2ccccc2S(=O)(=O)c2ccc(NC(=O)NCc3cn[nH]c3)cc2)c1 [1-((1H-Pyrazol-4-yl)methyl)-3-(4-((3′-cyano-[1,1′-biphenyl]-2-yl)sulfonyl)phenyl)urea]	5000 to 20000
COc1ccccc1-c1csc(Nc2ccc(NC(=O)NCc3cn[nH]c3)cc2)n1 [1-((1H-Pyrazol-4-yl)methyl)-3-(4-((4-(2-methoxyphenyl)thiazol-2-yl)amino)phenyl)urea]	100 to 2000
COc1cccc(-c2csc(Nc3ccc(NC(=O)NCc4cn[nH]c4)cc3)n2)c1 [1-((1H-Pyrazol-4-yl)methyl)-3-(4-((4-(3-methoxyphenyl)thiazol-2-yl)amino)phenyl)urea]	100 to 2000
COc1ccc(-c2csc(Nc3ccc(NC(=O)NCc4cn[nH]c4)cc3)n2)cc1 [1-((1H-Pyrazol-4-yl)methyl)-3-(4-((4-(4-methoxyphenyl)thiazol-2-yl)amino)phenyl)urea]	100 to 2000
O=C(NCc1cn[nH]c1)Nc1ccc(S(=O)(=O)c2ccc(C(F)(F)F)cc2)cc1 [1-((1H-Pyrazol-4-yl)methyl)-3-(4-((4-(trifluoromethyl)phenyl)sulfonyl)phenyl)urea]	100 to 2000
O=C(NCc1cn[nH]c1)Nc1ccc(S(=O)(=O)c2ccc(F)cc2)cc1 [1-((1H-Pyrazol-4-yl)methyl)-3-(4-((4-fluorophenyl)sulfonyl)phenyl)urea]	< 100
O=C(NCc1cn[nH]c1)Nc1ccc(Nc2nc(-c3ccccc3)cs2)cc1 [1-((1H-Pyrazol-4-yl)methyl)-3-(4-((4-phenylthiazol-2-yl)amino)phenyl)urea]	100 to 2000
N#Cc1ccc(-c2ccccc2S(=O)(=O)c2ccc(NC(=O)NCc3cn[nH]c3)cc2)cc1 [1-((1H-Pyrazol-4-yl)methyl)-3-(4-((4′-cyano-[1,1′-biphenyl]-2-yl)sulfonyl)phenyl)urea]	5000 to 20000
O=C(NCc1cn[nH]c1)Nc1ccc(Nc2ncc(-c3ccccc3)s2)cc1 [1-((1H-Pyrazol-4-yl)methyl)-3-(4-((5-phenylthiazol-2-yl)amino)phenyl)urea]	100 to 2000
O=C(NCc1cn[nH]c1)Nc1ccc(S(=O)(=O)c2ccccc2-c2ccccc2)cc1 [1-((1H-Pyrazol-4-yl)methyl)-3-(4-([1,1′-biphenyl]-2-ylsulfonyl)phenyl)urea]	< 100
O=C(NCc1cn[nH]c1)Nc1ccc(S(=O)(=O)c2cccc(-c3ccccc3)c2)cc1 [1-((1H-Pyrazol-4-yl)methyl)-3-(4-([1,1′-biphenyl]-3-ylsulfonyl)phenyl)urea]	100 to 2000
O=C(NCc1cn[nH]c1)Nc1ccc(-c2nc3ccccc3s2)cc1 [1-((1H-Pyrazol-4-yl)methyl)-3-(4-(benzo[d]thiazol-2-yl)phenyl)urea]	5000 to 20000
O=C(NCc1cn[nH]c1)Nc1ccc(Nc2nc3ccccc3s2)cc1 [1-((1H-Pyrazol-4-yl)methyl)-3-(4-(benzo[d]thiazol-2-ylamino)phenyl)urea]	> 20000
O=C(NCc1cn[nH]c1)Nc1ccc(S(=O)(=O)c2ccccn2)cc1 [1-((1H-Pyrazol-4-yl)methyl)-3-(4-(pyridin-2-ylsulfonyl)phenyl)urea]	100 to 2000
O=C(NCc1cn[nH]c1)Nc1ccc(S(=O)(=O)c2ccncc2)cc1 [1-((1H-Pyrazol-4-yl)methyl)-3-(4-(pyridin-4-ylsulfonyl)phenyl)urea]	100 to 2000
O=C(NCc1cn[nH]c1)Nc1ccc(S(=O)(=O)c2cncnc2)cc1 [1-((1H-Pyrazol-4-yl)methyl)-3-(4-(pyrimidin-5-ylsulfonyl)phenyl)urea]	100 to 2000

Same assay, conditions: Table B-5; NAMPT activation, NMN formation

Compound	EC50 [nM]
O=C(NCc1cnco1)Nc1ccc(-c2ncc(-c3ccccc3)s2)cc1 [1-(Oxazol-5-ylmethyl)-3-(4-(5-phenylthiazol-2-yl)phenyl)urea]	5000 to 20000
O=C(NCc1cnco1)Nc1ccc(S(=O)(=O)c2cccc(C(F)(F)F)c2)cc1 [1-(Oxazol-5-ylmethyl)-3-(4-((3-(trifluoromethyl)phenyl)sulfonyl)phenyl)urea]	100 to 2000
O=C(NCc1cnco1)Nc1ccc(S(=O)(=O)c2ccc(C(F)(F)F)cc2)cc1 [1-(Oxazol-5-ylmethyl)-3-(4-((4-(trifluoromethyl)phenyl)sulfonyl)phenyl)urea]	100 to 2000
O=C(NCc1cnco1)Nc1ccc(Nc2nc(-c3ccccc3)cs2)cc1 [1-(Oxazol-5-ylmethyl)-3-(4-((4-phenylthiazol-2-yl)amino)phenyl)urea]	2000 to 5000
O=C(NCc1cnco1)Nc1ccc(Nc2ncc(-c3ccccc3)s2)cc1 [1-(Oxazol-5-ylmethyl)-3-(4-((5-phenylthiazol-2-yl)amino)phenyl)urea]	100 to 2000
O=C(NCc1cnco1)Nc1ccc(S(=O)(=O)c2ccccn2)cc1 [1-(Oxazol-5-ylmethyl)-3-(4-(pyridin-2-ylsulfonyl)phenyl)urea]	100 to 2000
O=C(NCc1cnco1)Nc1ccc(S(=O)(=O)c2ccncc2)cc1 [1-(Oxazol-5-ylmethyl)-3-(4-(pyridin-4-ylsulfonyl)phenyl)urea]	100 to 2000
O=C(NCc1cnco1)Nc1ccc(S(=O)(=O)c2ccccc2C(F)(F)F)cc1 [1-Oxazol-5-ylmethyl-3-[4-(2-trifluoromethyl-benzenesulfonyl)-phenyl]-urea]	100 to 2000
O=C(NCc1cnco1)Nc1ccc(S(=O)(=O)c2ccc(OC(F)(F)F)cc2)cc1 [1-Oxazol-5-ylmethyl-3-[4-(4-trifluoromethoxy-benzenesulfonyl)-phenyl]-urea]	100 to 2000
O=C(NCc1cnco1)Nc1ccc(S(=O)(=O)c2cnccn2)cc1 [1-Oxazol-5-ylmethyl-3-[4-(pyrazine-2-sulfonyl)-phenyl]-urea]	100 to 2000
O=C(NCc1cnco1)Nc1ccc(S(=O)(=O)c2cccnc2)cc1 [1-Oxazol-5-ylmethyl-3-[4-(pyridine-3-sulfonyl)-phenyl]-urea]	100 to 2000
O=C(NCc1cnco1)Nc1ccc(S(=O)(=O)c2ncccn2)cc1 [1-Oxazol-5-ylmethyl-3-[4-(pyrimidine-2-sulfonyl)-phenyl]-urea]	5000 to 20000
O=C(NCc1cnco1)Nc1ccc(S(=O)(=O)c2nccs2)cc1 [1-Oxazol-5-ylmethyl-3-[4-(thiazole-2-sulfonyl)-phenyl]-urea]	100 to 2000
Cc1ccccc1S(=O)(=O)c1ccc(NC(=O)NCc2cnco2)cc1 [1-Oxazol-5-ylmethyl-3-[4-(toluene-2-sulfonyl)-phenyl]-urea]	100 to 2000
Cc1cccc(S(=O)(=O)c2ccc(NC(=O)NCc3cnco3)cc2)c1 [1-Oxazol-5-ylmethyl-3-[4-(toluene-3-sulfonyl)-phenyl]-urea]	100 to 2000
Cc1ccc(S(=O)(=O)c2ccc(NC(=O)NCc3cnco3)cc2)cc1 [1-Oxazol-5-ylmethyl-3-[4-(toluene-4-sulfonyl)-phenyl]-urea]	2000 to 5000

Same assay, conditions: Table B-6; NAMPT activation, NMN formation

Compound	EC50 [nM]
O=C(NCc1cn[nH]c1)Nc1ccc(S(=O)(=O)c2cccc(C(F)(F)F)c2)cc1 [1-((1H-Pyrazol-4-yl)methyl)-3-(4-((3-(trifluoromethyl)phenyl)sulfonyl)phenyl)urea]	100 to 2000
O=C(NCc1ccncc1)Nc1ccc(S(=O)(=O)c2cccc(C(F)(F)F)c2)cc1 [1-(Pyridin-4-ylmethyl)-3-(4-((3-(trifluoromethyl)phenyl)sulfonyl)phenyl)urea]	< 100
O=C(NCc1ccncc1)Nc1ccc(S(=O)(=O)c2ccncc2)cc1 [1-(Pyridin-4-ylmethyl)-3-(4-(pyridin-4-ylsulfonyl)phenyl)urea]	100 to 2000
